Key:
[1] = test system: 4 KRAS mutant PDAC cell lines (MIA PaCa-2, Panc-1, T182, E549); experiment: Viability of KRAS mutant PDAC cell lines after single-drug treatment, MTT assay at 72 hours; format: cell-based, human; murine; conditions: 4 PDAC cell lines
Experimental: We treated each cell line with the mTOR inhibitor Everolimus, the AKT inhibitor MK-2206, the dual PI-3K/mTOR inhibitor BEZ235, and the MEK inhibitor Selumetinib, or Compound P (mefloquine), prior to viability assessment at 72 hours via MTT assay.
To determine optimal doses for combination, we first analyzed the viability dose-response curves for each drug. […] The optimal dose for each drug was then serially diluted by one-half from the chosen optimal dose to 1/32nd of the chosen optimal dose, such that six combination points could be analyzed. Because the ratio of each drug in each experiment remained constant in all serial dilutions, we refer to this method as the “fixed molar ratio method”.

human TS = human TS (Homo sapiens, UniProt P04818); experiment: Inhibition of the enzymatic activity of thymidylate synthase; format: biochemical
human TS, sequence (P04818 whole entry): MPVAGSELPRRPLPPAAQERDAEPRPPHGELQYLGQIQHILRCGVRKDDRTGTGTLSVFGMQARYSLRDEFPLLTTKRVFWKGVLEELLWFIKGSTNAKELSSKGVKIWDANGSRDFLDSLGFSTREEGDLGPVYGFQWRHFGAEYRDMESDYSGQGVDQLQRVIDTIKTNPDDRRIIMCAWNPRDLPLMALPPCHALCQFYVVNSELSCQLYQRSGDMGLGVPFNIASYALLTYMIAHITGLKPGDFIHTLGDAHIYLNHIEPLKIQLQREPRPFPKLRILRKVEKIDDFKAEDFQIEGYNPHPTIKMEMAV

PDAC = experiment: Inhibition of PDAC in vivo by combination with KRAS/PI-3K/AKT/mTOR pathway inhibitors; conditions: partner inhibitors not named

| Structure (SMILES) | growth inhibition effect on cell viability [1] | mode of inhibition of the enzymatic activity of human TS (human TS) | synergy with inhibitors of the KRAS/PI-3K/AKT/mTOR pathway to inhibit PDAC in vivo (PDAC) |
| --- | --- | --- | --- |
| Cn1c(=O)n(-c2ccc(C(C)(C)C#N)cc2)c2c3cc(-c4cnc5ccccc5c4)ccc3ncc21 [BEZ235, 2-methyl-2-[4-(3-methyl-2-oxo-8-quinolin-3-ylimidazo[4,5-c]quinolin-1-yl)phenyl]propanenitrile] | fully cytotoxic in 3 out of 4 cell lines |  |  |
| OC(c1cc(C(F)(F)F)nc2c(C(F)(F)F)cccc12)C1CCCCN1 (stereo not drawn) [Compound P, [2,8-bis(trifluoromethyl)quinolin-4-yl]-piperidin-2-ylmethanol] | cytotoxic in all cell lines tested | partial mixed-type | synergizes |
| Cl.Cl.NC1(c2ccc(-c3nc4ccn5c(=O)[nH]nc5c4cc3-c3ccccc3)cc2)CCC1 [MK-2206, 8-[4-(1-aminocyclobutyl)phenyl]-9-phenyl-2H-[1,2,4]triazolo[3,4-f][1,6]naphthyridin-3-one; dihydrochloride] | fully cytotoxic in 3 out of 4 cell lines |  |  |
| CO[C@H]1C[C@@H]2CC[C@@H](C)[C@@](O)(O2)C(=O)C(=O)N2CCCC[C@H]2C(=O)O[C@H]([C@H](C)C[C@@H]2CC[C@@H](OCCO)[C@H](OC)C2)CC(=O)[C@H](C)/C=C(\C)[C@@H](O)[C@@H](OC)C(=O)[C@H](C)C[C@H](C)/C=C/C=C/C=C/1C [Everolimus, (1S,9R,15R,16E,18R,19R,21S,23R,24E,26E,28E,30S,32R,35S)-1,18-dihydroxy-12-[(2S)-1-[(1S,3R,4R)-4-(2-hydroxyethoxy)-3-methoxycyclohexyl]propan-2-yl]-19,30-dimethoxy-15,17,21,23,29,35-hexamethyl-11,36-dioxa-4-azatricyclo[30.3.1.0^4,^9]hexatriaconta-16,24,26,28-tetraene-2,3,10,14,20-pentone] | potently cytostatic |  |  |

Source: US10835524B2, “Compositions for the treatment of pancreatic cancer and uses thereof” (University of Florida Research Foundation, Incorporated, priority 2015, dated 2020)
